Measurements as given in patent US10105357B2, “Indication of antibiotic drugs for preparation of cancer inhibition pharmaceutical composition” (LAUNX BIOMEDICAL CO., LTD., priority 2014, dated 2018).
Where two headings read alike, the source gives them in different places.

What was measured:
[1] = test system: HepG2 (Hepatocellular Carcinoma); test: Cell viability analysis, hepatic cancer HepG2; type: cell-based, human; details: Homo sapiens, HepG2, 72 h
[2] = test system: MKN-45 (Gastric Adenocarcinoma); test: Cell viability analysis, gastric cancer MKN-45; type: cell-based, human; details: Homo sapiens, MKN-45, 72 h
TOV-21G = test: Cell viability analysis, ovarian cancer TOV-21G; type: cell-based, human; details: Homo sapiens, TOV21G, 72 h, read-out: The results of antibiotic drug inhibiting cancer cell lines (cell viability analysis), TOV-21G
NIH: OVCAR-3 = test: Cell viability analysis, ovarian cancer NIH: OVCAR-3; type: cell-based, human; details: Homo sapiens, OVCAR-3, 72 h, read-out: The results of antibiotic drug inhibiting cancer cell lines (cell viability analysis), NIH-OVCAR-3
[3] = test system: LoVo (Colorectal Adenocarcinoma); test: Cell viability analysis, colon cancer LoVo; type: cell-based, human; details: Homo sapiens, LoVo, 72 h
BxPC-3 = test: Cell viability analysis, pancreatic cancer BxPC-3; type: cell-based, human; details: Homo sapiens, BXPC-3, 72 h, read-out: The results of antibiotic drug inhibiting cancer cell lines (cell viability analysis), BxPC-3
[4] = test system: SAS (Tongue squamous cell carcinoma); test: Cell viability analysis, tongue cancer SAS; type: cell-based, human; details: Homo sapiens, 72 h, read-out: The results of antibiotic drug inhibiting cancer cell lines (cell viability analysis), SAS
[5] = test system: PC3 (p53−) (Prostate Adenocarcinoma); test: Cell viability analysis, prostate cancer PC3; type: cell-based, human; details: Homo sapiens, 72 h
[6] = test system: A549 (Lung Adenocarcinoma); test: Cell viability analysis, lung cancer A549; type: cell-based, human; details: Homo sapiens, A549, 72 h
[7] = test system: 786-O (Renal adenocarcinoma); test: Cell viability analysis, renal cancer 786-O; type: cell-based, human; details: Homo sapiens, 786-0, 72 h, read-out: The results of antibiotic drug inhibiting cancer cell lines (cell viability analysis), 786-O
[8] = test system: MCF7 (Mammary Gland, Adenocarcinoma); test: Cell viability analysis, breast cancer MCF7; type: cell-based, human; details: Homo sapiens, MCF7, 72 h
[9] = test system: C-33A (Cervical carcinoma); test: Cell viability analysis, cervical cancer C-33A; type: cell-based, human; details: Homo sapiens, C-33-A, 72 h, read-out: The results of antibiotic drug inhibiting cancer cell lines (cell viability analysis), C-33A
[10] = test system: TSGH-8301 (Urinary Bladder Carcinoma); test: Cell viability analysis, bladder cancer TSGH-8301; type: cell-based, human; details: Homo sapiens, 72 h
[11] = test system: HeLa (Cervix Adenocarcinoma); test: Cell viability analysis, cervical cancer HeLa; type: cell-based, human; details: Homo sapiens, HeLa, 72 h
[12] = test system: Hep3B (hepatocellular carcinoma); test: Cell viability analysis, hepatic cancer Hep3B; type: cell-based, human; details: Homo sapiens, Hep3B, 72 h, read-out: The results of antibiotic drug inhibiting cancer cell lines (cell viability analysis), Hep3B
[13] = test system: MDA-MB-231 (Mammary Gland, Adenocarcinoma); test: Cell viability analysis, breast cancer MDA-MB-231; type: cell-based, human; details: Homo sapiens, MDA-MB-231, 72 h, read-out: The results of antibiotic drug inhibiting cancer cell lines (cell viability analysis), MDA-MB231
[14] = test system: HCT116 (p53+) (Colorectal Carcinoma)
[15] = test system: HI650 (Lung Adenocarcinoma); test: Cell viability analysis, lung cancer HI650; type: cell-based, human; details: Homo sapiens, NCI-H1650, 72 h
cancer cell lines = test: Cell viability analysis (WST-1) on cancer cell lines; type: cell-based, human; details: drug 10 μM, 72 hours, WST-1; Table 3
[16] = test system: HL-60 (Acute Promyelocytic Leukemia); test: Cell viability analysis, leukemia HL-60; type: cell-based, human; details: Homo sapiens, HL-60, 72 h, read-out: cell viability (survival rate), HL-60, drug 10 μM, 72 hours, WST-1, OD450 nm
U-2OS = test: Cell viability analysis, osteosarcoma U-2OS; type: cell-based, human; details: Homo sapiens, U2OS, 72 h, read-out: The results of antibiotic drug inhibiting cancer cell lines (cell viability analysis), U2OS
AsPC-1 = test: Cell viability analysis, pancreatic cancer AsPC-1; type: cell-based, human; details: Homo sapiens, ASPC1, 72 h, read-out: The results of antibiotic drug inhibiting cancer cell lines (cell viability analysis), AsPC-1
[17] = test system: A375 (Amelanotic Melanoma); test: Cell viability analysis, skin cancer A375; type: cell-based, human; details: Homo sapiens, A-375, 72 h
[18] = test system: AGS (Gastric Adenocarcinoma); test: Cell viability analysis, gastric cancer AGS; type: cell-based, human; details: Homo sapiens, 72 h
[19] = read-out: The results of antibiotic drug inhibiting cancer cell lines (cell viability analysis), HepG2, HepG2, repeated experiment
[20] = read-out: cell viability (survival rate), HepG2, drug 10 μM, 72 hours, WST-1, OD450 nm
[21] = read-out: The results of antibiotic drug inhibiting cancer cell lines (cell viability analysis), MKN-45, MKN-45, repeated experiment
[22] = read-out: cell viability (survival rate), MKN-45, drug 10 μM, 72 hours, WST-1, OD450 nm
[23] = read-out: The results of antibiotic drug inhibiting cancer cell lines (cell viability analysis), LoVo, repeated experiment
[24] = read-out: cell viability (survival rate), LoVo, drug 10 μM, 72 hours, WST-1, OD450 nm
[25] = read-out: The results of antibiotic drug inhibiting cancer cell lines (cell viability analysis), PC-3, PC-3, repeated experiment
[26] = read-out: cell viability (survival rate), PC3, drug 10 μM, 72 hours, WST-1, OD450 nm
[27] = read-out: The results of antibiotic drug inhibiting cancer cell lines (cell viability analysis), A549, A549, repeated experiment
[28] = read-out: cell viability (survival rate), A549, drug 10 μM, 72 hours, WST-1, OD450 nm
[29] = read-out: The results of antibiotic drug inhibiting cancer cell lines (cell viability analysis), MCF-7, MCF-7, repeated experiment
[30] = read-out: cell viability (survival rate), MCF7, drug 10 μM, 72 hours, WST-1, OD450 nm
[31] = read-out: The results of antibiotic drug inhibiting cancer cell lines (cell viability analysis), TSGH-8301, TSGH-8301, repeated experiment
[32] = read-out: cell viability (survival rate), TSGH, drug 10 μM, 72 hours, WST-1, OD450 nm
[33] = read-out: The results of antibiotic drug inhibiting cancer cell lines (cell viability analysis), HeLa, repeated experiment
[34] = read-out: cell viability (survival rate), HeLa, drug 10 μM, 72 hours, WST-1, OD450 nm
[35] = read-out: The results of antibiotic drug inhibiting cancer cell lines (cell viability analysis), H1650, H1650, repeated experiment
[36] = read-out: cell viability (survival rate), H1650, drug 10 μM, 72 hours, WST-1, OD450 nm
[37] = read-out: The results of antibiotic drug inhibiting cancer cell lines (cell viability analysis), A375, A375, repeated experiment
[38] = read-out: cell viability (survival rate), A375, drug 10 μM, 72 hours, WST-1, OD450 nm
[39] = read-out: The results of antibiotic drug inhibiting cancer cell lines (cell viability analysis), AGS, repeated experiment
[40] = read-out: cell viability (survival rate), AGS, drug 10 μM, 72 hours, WST-1, OD450 nm

Question: How did the viability at 10 µM [1, 19] turn out when `COc1cc(NC(C)CCCN)c2ncccc2c1` (stereo not shown) [Primaquine Diphosphate] was run?
Answer: The viability at 10 µM was 81%.

Question: And the viability at 10 µM [1, 20]?
Answer: The viability at 10 µM was 81.4%.

Question: And the viability at 10 µM [2, 21]?
Answer: The viability at 10 µM was 63.1%.

Question: And the viability at 10 µM [2, 22]?
Answer: The viability at 10 µM was 64.3%.

Question: And the viability at 10 µM (TOV-21G)?
Answer: Its viability at 10 µM is 54.8%.

Question: And the viability at 10 µM (NIH: OVCAR-3)?
Answer: The viability at 10 µM was 60.2%.

Question: And the viability at 10 µM [3, 23]?
Answer: Its viability at 10 µM is 81.2%.

Question: What about the viability at 10 µM [3, 24] of the same molecule?
Answer: The viability at 10 µM was 72.6%.

Question: And the viability at 10 µM (BxPC-3)?
Answer: Its viability at 10 µM is 49.8%.

Question: What about the viability at 10 µM [4] of the same molecule?
Answer: The viability at 10 µM was 59.9%.

Question: What about the viability at 10 µM [5, 25] of the same molecule?
Answer: Its viability at 10 µM is 65.7%.

Question: What about the viability at 10 µM [5, 26] of the same molecule?
Answer: The viability at 10 µM was 60.3%.

Question: What about the viability at 10 µM [6, 27] of the same molecule?
Answer: The viability at 10 µM was 47.4%.

Question: And the viability at 10 µM [6, 28]?
Answer: Its viability at 10 µM is 31.4%.

Question: And the viability at 10 µM [7]?
Answer: The viability at 10 µM was 81.5%.

Question: And the viability at 10 µM [8, 29]?
Answer: Its viability at 10 µM is 50.7%.

Question: And the viability at 10 µM [8, 30]?
Answer: The viability at 10 µM was 36.7%.

Question: And the viability at 10 µM [9]?
Answer: The viability at 10 µM was 96.8%.

Question: What about the viability at 10 µM [10, 31] of the same molecule?
Answer: The viability at 10 µM was 51.5%.

Question: And the viability at 10 µM [10, 32]?
Answer: Its viability at 10 µM is 55.5%.

Question: And the viability at 10 µM [11, 33]?
Answer: The viability at 10 µM was 61.2%.

Question: What about the viability at 10 µM [11, 34] of the same molecule?
Answer: The viability at 10 µM was 55%.

Question: And the viability at 10 µM [12]?
Answer: Its viability at 10 µM is 115%.

Question: And the viability at 10 µM [13]?
Answer: The viability at 10 µM was 65.4%.

Question: What about the viability [14] of the same molecule?
Answer: Its viability is 60.9%.

Question: And the viability at 10 µM [15, 35]?
Answer: Its viability at 10 µM is 66.8%.

Question: What about the viability at 10 µM [15, 36] of the same molecule?
Answer: The viability at 10 µM was 56.4%.

Question: What about the “inhibition effect on different cancer cell lines” value (cancer cell lines) of the same molecule?
Answer: Its value is “significant inhibition effect”.

Question: And the viability at 10 µM [16]?
Answer: The viability at 10 µM was 34.1%.

Question: And the viability at 10 µM (U-2OS)?
Answer: The viability at 10 µM was 59.6%.

Question: And the viability at 10 µM (AsPC-1)?
Answer: The viability at 10 µM was 66.5%.

Question: What about the viability at 10 µM [17, 37] of the same molecule?
Answer: Its viability at 10 µM is 38.7%.

Question: What about the viability at 10 µM [17, 38] of the same molecule?
Answer: The viability at 10 µM was 44.6%.

Question: What about the viability at 10 µM [18, 39] of the same molecule?
Answer: Its viability at 10 µM is 37.1%.

Question: And the viability at 10 µM [18, 40]?
Answer: The viability at 10 µM was 43.9%.

Question: What does the source list for `CC(C)(C)C(=O)OCOP(=O)(COCCn1cnc2c(N)ncnc21)OCOC(=O)C(C)(C)C` [Adefovir Dipivoxil (Preveon, Hepsera), Adefovir Dipivoxil]?
Answer: viability at 10 µM [1, 19]: 80.1%; viability at 10 µM [1, 20]: 95.5%; viability at 10 µM [2, 21]: 86.6%; viability at 10 µM [2, 22]: 46.1%; viability at 10 µM (TOV-21G): 77.3%; viability at 10 µM (NIH: OVCAR-3): 78.8%; viability at 10 µM [3, 23]: 58.1%; viability at 10 µM [3, 24]: 62%; viability at 10 µM (BxPC-3): 56.9%; viability at 10 µM [4]: 40%; viability at 10 µM [5, 25]: 74.8%; viability at 10 µM [5, 26]: 91.3%; viability at 10 µM [6, 27]: 76.7%; viability at 10 µM [6, 28]: 47.3%; viability at 10 µM [7]: 25.9%; viability at 10 µM [8, 29]: 75.5%; viability at 10 µM [8, 30]: 56.7%; viability at 10 µM [9]: 68%; viability at 10 µM [10, 31]: 70%; viability at 10 µM [10, 32]: 47%; viability at 10 µM [11, 33]: 77.4%; viability at 10 µM [11, 34]: 96.6%; viability at 10 µM [12]: 71.5%; viability at 10 µM [13]: 71.9%; viability [14]: 55.4%; viability at 10 µM [15, 35]: 54%; viability at 10 µM [15, 36]: 55.3%; inhibition effect on different cancer cell lines (cancer cell lines): significant inhibition effect; viability at 10 µM [16]: 60.4%; viability at 10 µM (U-2OS): 68.5%; viability at 10 µM (AsPC-1): 48.7%; viability at 10 µM [17, 37]: 37.7%; viability at 10 µM [17, 38]: 81.7%; viability at 10 µM [18, 39]: 78%; viability at 10 µM [18, 40]: 35.1%
